Experiments:
[1] = system: R^I cAMP receptor protein (Molt-4); test: R^I cAMP receptor protein in Molt-4 leukemic cells; type: cell-based, human; conditions: growth-arrested by 8-Cl-adenosine (5 micromol/L)
Source text: (§1) M marker proteins of known molecular weight. […] The resulting supernatants were used as cell lysates. […] ND=nondetectable.

c-myc protein = c-myc protein level, Western blotting (FIG. 9B); type: cell-based, human; conditions: growth-arrested by 8-Cl-adenosine (5 micromol/L)
Description: The cells were grown in suspension culture in RPMI 1640 medium supplemented with 10% fetal bovine serum, penicillin (50 U/ml), streptomycin ([…]), 10 mmol/L HEPES buffer, and extra glutamine. […] Surface antigen analysis of HL-60 cells was performed by flow cytometry using a panel of monoclonal antibodies reactive with either myeloid cells or monocytic cells. Terminal deoxynucleotidyl transferase (TdT) was assayed by an immunoperoxidase method using a TdT fluorescence kit. Western blotting of c-myc protein was performed using c-myc antibody 15206D11 (Scripps Clinic and Research Foundation, LaJolla, Calif.).
as §1

[2] = system: breast and colon cancer cell lines; test: cell cycle progression of breast and colon cancer cell lines; type: cell-based, human; conditions: vs untreated control cells
Description: (§2) DNA histograms were generated on FACS II by using the DNA intercalating dye propidium iodide as described by Braylan et al. (Cytometry 2: 337-343, 1982). The percentage of cells in each cycle phase was calculated by using a PDP-11/34 computer and software as described by Neckers et al. (Mol. Cell. Biol. 6: 4244-4250, 1986).
A determination was made whether the reduced cell proliferation observed in the cancer cell lines after treatment with the compounds of the present invention is due to a specific block in one phase of the cell cycle.

[3] = system: LS-174T colon cancer line; test: growth inhibition and release from inhibition, LS-174T (FIG. 3); type: cell-based, human
Description: 1×10^5 cells/60 mm dish were seeded, and 24 hours later (Day 0), the medium was removed and fresh medium and additives were added then and every 48 hours thereafter. […] The triplicate cell count for each experimental point never varied by more than 10%.
(§3) All breast cancer cell lines were grown in IMEM supplemented with 10% fetal bovine serum, 20 mM HEPES, penicillin-streptomycin, and extra glutamine. Colon carcinoma cell lines were grown in EMEM supplemented with 10% FBS, EMEM, NEAA, HEPES 20 mM, extra glutamine, and penicillin-streptomycin. The cells were grown at 37° C. in humidified incubators in an atmosphere of 5% CO2.

[4] = system: p21 ras protein (MCF-7 cells); test: Western blotting of p21 ras protein in MCF-7 cells; type: cell-based, human; conditions: 5 microM
Description: (§4) Western blotting of p21 protein was performed as described below. […] V is cell lysate from Ha-MuSV-transformed NIH3T3 clone 13-3B-4. M, marker proteins of known molecular weight.
Cellular proteins present in cell extracts were separated by 12% SDS-PAGE and transferred to nitrocellulose sheets in transfer buffer (25 mM Tris, 192 mM glycine, 20% methanol, pH 7.4). Nitrocellulose sheets were washed and first incubated with 3% bovine serum albumin in NTE-NP40 (50 mM Tris-HCl, pH 7.5, 150 mM NaCl, 2 mM EDTA, 0.1% Nonidet P-40) for three hours at 37° C. and then sequentially incubated with medium containing p21 monoclonal antiserum Y13-259 directed against the Ha-MuSV-encoded p21 for sixteen hours at 4° C., rabbit anti-rat IgG for 2.5 hours in an ice-water bath, and 5×10^5 cpm/ml ^125 I-protein A for one hour in an ice-water bath. The nitrocellulose sheets were air-dried and exposed to Kodak XAR film for 12-36 hours at -20° C. Comparison of the resulting autoradiograms with others in which normal rat serum was substituted for p21 monoclonal antibody permitted identification of p21. To provide a reference p21, cell lysates were prepared from NIH 3T3 clone 13-3B-4 that had been transfected with Ha-MuSV DNA.
The levels of p21 protein are expressed relative to the p21 level in the untreated control cells, which is set equal to 1.0 O.D.

MCF-7 cells = test: growth of MCF-7 cells; type: cell-based, human; conditions: 5 microM
Description: as §4, §3
For cell growth experiments, 2-3×10^5 cells/60 mm dish were seeded, and 24 hours later (Day 0), the medium was removed, and fresh medium and the additives were added then and every 48 hours thereafter The compounds of the present invention were added using 100× concentrated stock solutions. At desired times, cell counts in duplicate were performed on a Coulter counter after harvesting the cells with gentle trypsinization.

[5] = system: LS-174T colon cancer cells; test: cell cycle analysis, LS-174T; type: cell-based, human; conditions: 8-Cl-adenosine 5 μM, 3 days, two separate experiments
Description: as §2
Breast (MCF-7, MDA-MB-231) and colon (LS-174T) cancer cells in
log phase (untreated control) and 3 days after treatment with
(5 μM) were analyzed for DNA content by flow cytometric analysis

MX-1 mammary carcinoma = test: growth of MX-1 human mammary tumor xenograft; type: in vivo; conditions: 7 days, staging day
Description: (§5) Based on the findings with the L1210 leukemia model, the efficacy of the 8-Cl-cAMP-Na+ infusions were evaluated in advanced-stage human tumor xenograft models. Tumor fragments of approximately 14 mg were implanted subcutaneously in athymic CD-1 female mice and seven day intraperitoneal infusions of the cyclic nucleotide were initiated three weeks later when mean tumor weights had reached 300-400 mg. Tumor measurements were recorded on the initial day of treatment (staging day) and one day after treatment was completed (staging day+7), and were used to calculate changes in tumor weights.
(§6) *Mean tumor weight per group on staging day.
(§7) $Mean tumor weight per group on staging day +7.
(§8) **Change in *test tumor wt (finalinitial)/initial test tumor wt. Used
(§9) where test tumor size was reduced during treatment. Denoted by negative
(§10) $$Change in test tumor wt/change in control tumor wt. Used where test
(§11) tumor size increased during treatment. Denoted by positive value.

[6] = lethality in non-tumored BDF1 mice, single i.p. injection; type: in vivo, mouse; conditions: qd, day 1; for Toxic deaths, No. killed/No. treated: ip
Source text: Influence of 8-Cl-cAMP-Na^+ on the life span of non-tumor
BDF1 mice when delivered i.p. by bolus injection

[7] = system: two mammary, one lung, and one colon tumor; test: human tumor xenografts in athymic mice; type: in vivo; conditions: seven day intraperitoneal infusions
Description: as §5

[8] = system: MDA-MB-231 mammary carcinoma; test: growth of MDA-MB-231 human mammary tumor xenograft; type: in vivo; conditions: 7 days, staging day
Description: as §5, §6, §7, §8, §9, §10, §11

LX-1-Lung carcinoma = test: growth of LX-1 human lung tumor xenograft; type: in vivo; conditions: 7 days, staging day
Description: as §5, §6, §7
(§12) **Change in test tumor wt (final initial)/initial test tumor wt. Used
(§13) where tumor size was reduced during treatment. Denoted by negative value.
as §10, §11

LOVO Colon carcinoma = test: growth of LOVO human colon tumor xenograft; type: in vivo; conditions: 7 days; for Initial Mean Tumor Wt: staging day
Description: as §5, §6, §7, §12, §13, §10, §11

human LoVo colon tumors = test: subcutaneous infusion in athymic NCR-NU mice bearing human LoVo colon tumors; type: in vivo; conditions: s.c. infusion approx. 42 mg/kg/day (1 mg/mouse), seven days
murine leukemia L1210 = test: life span of L1210-inoculated BDF1 mice; type: in vivo, mouse; conditions: for toxicity remark: ip, 24-hr infusion, day 1-5
Source text: | Infusions by Harvard pumps.

Nc1ncnc2c1nc(Cl)n2[C@@H]1O[C@H](CO)[C@@H](O)[C@H]1O [8-Cl-adenosine, reference compound]
decrease in R^I receptor level [1]: not observed | decrease in c-myc protein level (c-myc protein): not observed | fractions of cells in G1, S and G2/M phases, in words [2]: appreciable increase of the cell population in Gl phase with a marked reduction in S-phase | mechanism of growth inhibition / cell viability [3]: cell killing | cell growth during treatment ([3]; 8-Cl-cAMP 10 microM or 8-Cl-adenosine 5 microM): marked reduction in cell growth | growth after cessation of treatment ([3]; after removal of additives): remained growth-inhibited and did not resume their growth up to two weeks | p21 level, in words [4]: did not appreciably affect the p21 level | growth inhibition, in words (MCF-7 cells): strong growth inhibition | % Cell population in G1 [5]: 72,68% | % Cell population in G2 M [5]: 20,18% | % Cell population in S [5]: 8,14% | activity at 5 µM ([5]; Homo sapiens, LS174T, 72 h, read-out: % Growth): 30.3%

Nc1ncnc2c1nc(Cl)n2[C@@H]1O[C@@H]2COP(=O)(O)O[C@H]2[C@H]1O [8-Cl-cAMP-Na^+]
Initial Mean Tumor Wt (MX-1 mammary carcinoma; 62 mg/kg/day ip infusion): 337 mg | Initial Mean Tumor Wt (MX-1 mammary carcinoma; 104 mg/kg/day ip infusion): 346 mg | Initial Mean Tumor Wt (MX-1 mammary carcinoma; 173 mg/kg/day ip infusion): 375 mg | Toxic deaths, No. killed/No. treated ([6]; 22 mg/kg/inj): 0 | Toxic deaths, No. killed/No. treated ([6]; 37 mg/kg/inj): 0 | Toxic deaths, No. killed/No. treated ([6]; 62 mg/kg/inj): 0 | Toxic deaths, No. killed/No. treated ([6]; 104 mg/kg/inj): 0 | mice killed (footnote) ([6]; 173 mg/kg): 2 of 5 | Toxic deaths, No. killed/No. treated ([6]; 173 mg/kg/inj): 2/5 | Toxic deaths, No. killed/No. treated ([6]; 288 mg/kg/inj): 5/5 | Toxic deaths, No. killed/No. treated ([6]; 480 mg/kg/inj): 5/5 | lethality (footnote) ([6]; 480 and 288 mg/kg): lethally toxic for all treated mice | lethality (footnote) ([6]; dosages lower than 173 mg/kg): not lethally | tumor growth during infusion, in words [7]: tumor stasis during treatment | Initial Mean Tumor Wt ([8]; 37 mg/kg/day ip infusion): 367 mg | Initial Mean Tumor Wt ([8]; 62 mg/kg/day ip infusion): 375 mg | Initial Mean Tumor Wt ([8]; 104 mg/kg/day ip infusion): 367 mg | Initial Mean Tumor Wt (LX-1-Lung carcinoma; 37 mg/kg/day ip infusion): 330 mg | Initial Mean Tumor Wt (LX-1-Lung carcinoma; 62 mg/kg/day ip infusion): 327 mg | Initial Mean Tumor Wt (LX-1-Lung carcinoma; 104 mg/kg/day ip infusion): 324 mg | % ΔT/T or % ΔT/ΔC (LOVO Colon carcinoma; 37 mg/kg/day ip infusion): -01% | Initial Mean Tumor Wt (LOVO Colon carcinoma; 37 mg/kg/day ip infusion): 288 mg | % ΔT/T or % ΔT/ΔC (LOVO Colon carcinoma; 62 mg/kg/day ip infusion): -01% | Initial Mean Tumor Wt (LOVO Colon carcinoma; 62 mg/kg/day ip infusion): 293 mg | Initial Mean Tumor Wt (LOVO Colon carcinoma; 104 mg/kg/day ip infusion): 288 mg | toxicity (human LoVo colon tumors): appeared to be toxic | mice killed (footnote) (murine leukemia L1210; 288 mg/kg, infused): 2 to 5 mice | toxicity remark (murine leukemia L1210; 288 mg/kg/day): toxic | toxicity remark (murine leukemia L1210; 480 mg/kg/day): toxic | toxicity remark (murine leukemia L1210; 800 mg/kg/day): toxic | lethality (footnote) (murine leukemia L1210; 800 and 480 mg/kg, infused): lethally toxic for all treated mice

Reference: US5902794A (priority 1997, dated 1999)
